Experimental data from patent US5352703A, “Antitussive and mucus regulating agent, a process for the preparation thereof and pharmaceutical compositions containing it” (priority 1990, dated 1994).
Entries after “also recorded” stand apart in the source; their conditions may differ.

Experiments:
Type in all cases: in vivo
[1] = test system: Citric acid induced cough; test: Citric acid induced cough in Guinea pig; details: for Cough strokes after treatment: mean ± S.E.; for Cough strokes after treatment / % inhibition vs. basal (cough strokes): n = 10; for ED50: Cavia porcellus, ip., citric acid cough, read-out: DE50 (effective dose 50, ED50)
From the text: 1. Citric acid induced cough in Guinea pig. The procedure described by R.A. Turner in "Screening methods in pharmacology-Antitussive agents" -Academic Press. New York-chapt. 23-page 219, 1965, with the changes reported by S. Malandrino et al. (Arzneim. Forsch. Drug. REs, 38, 1141, 1988), was used, comparing YS 912 with Ambroxol.

[2] = test system: NH3 induced cough; test: NH3 induced cough in Guinea pig; details: for antitussive activity in words: NH3 cough, p.o., Ambroxol at twice the YS 912 dose
From the text: NH3 induced cough in Guinea pig.
23-page 219, 1965 with the changes reported by S. Malandrino et al. (Arzneim. Forsch. Drug. Res, 38, 1141, 1988) was used, comparing YS 912, Ambroxol and two standard control drugs: Fominoben and Codeine phosphate.

[3] = test system: Cough induced by mechanical stimulation; test: Cough induced by mechanical stimulation in dog; details: for antitussive activity in words: mechanical stimulation, p.o., Ambroxol at twice the YS 912 dose
From the text: Cough induced by mechanical stimulation in dog.
24 Page 523, was used, comparing YS 912 with Ambroxol, Fominoben and Codeine phosphate.

[4] = test system: bronchial fluid; test: Bronchosecretolytic activity (fluorescein amount in bronchial fluid); details: for Fluorescein amount in bronchial fluid: means of 12 animals, controls 0.26 ± 0.03; for ED50: po, bronchosecretolytic activity, read-out: DE50 (calculated effective dose 50)
From the text: The procedure described by H. […] Graziani and P. Cazzulani-(I1 Farmaco Ed. Pr. 36, 167; 1981) was used, comparing YS 912 with Ambroxol at the same weight doses.

[5] = Acute pharmacokinetic study in the rat, single administration at equimolecular doses
Description: A study was carried out on the rat, by comparing the kinetic profiles of YS 912 and Ambroxol, after single administration at equimolecular doses.

[6] = "In steady" pharmacokinetic study in the rat, equimolecular doses during 6 days; details: extrapolated to human from rat
[7] = single administration at equimolecular doses

Structure (SMILES) | Cough strokes after treatment ([1]; 12.5 mg/kg ip.) [cough strokes] | % inhibition vs. basal (cough strokes) ([1]; 12.5 mg/kg ip.) [%] | Cough strokes after treatment ([1]; 25 mg/kg ip.) [cough strokes] | % inhibition vs. basal (cough strokes) ([1]; 25 mg/kg ip.) [%] | Cough strokes after treatment ([1]; 50 mg/kg ip.) [cough strokes] | % inhibition vs. basal (cough strokes) ([1]; 50 mg/kg ip.) [%] | ED50 [1] [mg/kg] | antitussive activity in words [2] | antitussive activity in words [3] | % v.s. controls (fluorescein amount) ([4]; 12.5 mg/kg p.o.) [%] | Fluorescein amount in bronchial fluid ([4]; 12.5 mg/kg p.o.) | % v.s. controls (fluorescein amount) ([4]; 25.0 mg/kg p.o.) [%] | Fluorescein amount in bronchial fluid ([4]; 25.0 mg/kg p.o.) | % v.s. controls (fluorescein amount) ([4]; 50.0 mg/kg p.o.) [%] | Fluorescein amount in bronchial fluid ([4]; 50.0 mg/kg p.o.) | ED50 [4] [mg/kg] | % inhibition vs. controls ([2]; 50 mg/kg p.o.) [%] | % inhibition vs. controls ([3]; 50 mg/kg p.o.) [%] | other results
Nc1c(Br)cc(Br)cc1CNC1CCC(O)CC1 (stereo not shown) [Ambroxol, 2-Amino-3,5-dibromo-N-(4-hydroxycyclohexyl)benzylamine, reference compound] | 7.40 ± 1.32 | 19.57 | 6.20 ± 0.61 | 35.42 | 4.80 ± 1.02 | 46.07 | 57.2 | poorly effective, lacking any statistical significance | substantially no effectiveness | 23.07 | 0.32 ± 0.03 | 26.92 | 0.33 ± 0.02 | 42.30 | 0.37 ± 0.03 | 95.2 |  |  | % inhibition vs. controls ([2]; 100 mg/kg p.o.): 34.2%; % inhibition vs. controls ([3]; 100 mg/kg p.o.): 13.5%; last time at which it can be dosed in plasma ([5]; in vivo): 12 h; time of plasmatic concentration peak ([5]; in vivo): second
CN(CC(=O)N1CCOCC1)Cc1c(Cl)cccc1NC(=O)c1ccccc1 [Fominoben] |  |  |  |  |  |  |  |  |  |  |  |  |  |  |  |  | 63.4 | 59.0 | 
O=C(Nc1c(Br)cc(Br)cc1CNC1CCC(O)CC1)c1ccccc1 (stereo not shown) [YS 912, 2-benzoylamino-3,5-dibromo-N-(4-hydroxycyclohexyl)benzylamine] | 2.90 ± 0.60 | 62.34 | 2.30 ± 0.54 | 75.00 | 2.00 ± 0.47 | 78.95 | 4.81 | high activity | comparable to that of the two control compounds | 19.23 | 0.31 ± 0.03 | 30.76 | 0.34 ± 0.04 | 46.15 | 0.38 ± 0.04 | 60 | 61.0 | 54.0 | antitussive activity in words ([1]; 12.5, 25, 50 mg/kg ip., compared with Ambroxol): remarkable antitussive activity; also recorded: higher than that of Ambroxol; potency by ED50 relative to Ambroxol ([1]; ratio to Ambroxol): 14 times; bronchosecretolytic effectiveness in words ([4]; p.o.): more favourable; Tmax ([5]; plasma, single administration, read-out: time of plasmatic concentration peak (converted)): 30 min; adsorption (absorption) ([5]; single administration): fast and high; main metabolite ([5]; single administration): the main metabolite being Ambroxol; AUC compared with Ambroxol [5, 7]: higher value being evidenced also in the case of the AUC; plasmatic half-life, increase over that of Ambroxol [5, 7]: 30%; metabolism: kinetic ([5]; single administration, after the 6th hour): slower kinetic; plasmatic concentrations in human clinic, extrapolated, two daily YS 912 vs three daily Ambroxol administrations [6]: two daily administrations of YS 912 allow to achieve plasmatic concentrations (and therefore therapeutical effectiveness) which can be compared with those obtained after three daily administrations of Ambroxol
COc1ccc2c3c1O[C@H]1[C@@H](O)C=C[C@H]4[C@@H](C2)N(C)CC[C@@]341 [Codeina fosfato] |  |  |  |  |  |  |  |  |  |  |  |  |  |  |  |  |  |  | % inhibition vs. controls ([2]; 5 mg/kg p.o.): 56.1%; % inhibition vs. controls ([3]; 5 mg/kg p.o.): 63.1%
